# In the NIST ThermoML archive (doi:10.1016/j.jct.2014.04.022):
# Several values for one entry are separate records, joined by “and”; a condition that tells them apart may be missing. Equal entries are not always repeated. Numbers after ± are expanded uncertainties.
# How the values were obtained:
# [1] = Liquid, Closed cell (Static) method
# [2] = molar heat capacity at constant pressure; conditions: 101.33 kPa, Liquid, Large sample (1 g) DSC
Structure (SMILES),vapor or sublimation pressure ([1]; 248.15 K),vapor or sublimation pressure ([1]; 253.15 K),vapor or sublimation pressure ([1]; 258.15 K),vapor or sublimation pressure ([1]; 263.15 K),vapor or sublimation pressure ([1]; 268.15 K),vapor or sublimation pressure ([1]; 273.15 K),vapor or sublimation pressure ([1]; 273.65 K),vapor or sublimation pressure ([1]; 278.15 K),vapor or sublimation pressure ([1]; 283.15 K),vapor or sublimation pressure ([1]; 288.15 K),vapor or sublimation pressure ([1]; 293.15 K),vapor or sublimation pressure ([1]; 298.15 K),vapor or sublimation pressure ([1]; 303.15 K),vapor or sublimation pressure ([1]; 308.15 K),also measured
C[C@H]1CC[C@H]2C[C@@H]1C2(C)C [(-)-trans-pinane],0.007832 ± 0.00032 kPa and 0.007836 ± 0.00032 kPa and 0.007837 ± 0.00032 kPa,0.0125 ± 0.0005 kPa,0.01954 ± 0.00062 kPa,0.02999 ± 0.00078 kPa and 0.03 ± 0.00078 kPa,0.04518 ± 0.001 kPa and 0.0452 ± 0.001 kPa,0.06684 ± 0.0014 kPa and 0.06685 ± 0.0014 kPa and 0.06686 ± 0.0014 kPa,0.06947 ± 0.0015 kPa,0.09731 ± 0.0019 kPa and 0.09732 ± 0.0019 kPa,0.1394 ± 0.0024 kPa,0.1968 ± 0.0031 kPa,0.2741 ± 0.004 kPa,0.3766 ± 0.0053 kPa and 0.3767 ± 0.0053 kPa,0.5114 ± 0.007 kPa,0.6862 ± 0.0091 kPa and 0.6863 ± 0.0091 kPa,vapor or sublimation pressure ([1]; 238.15 K): 0.002871 ± 0.00015 kPa and 0.002872 ± 0.00015 kPa; vapor or sublimation pressure ([1]; 243.15 K): 0.004792 ± 0.00021 kPa and 0.004794 ± 0.00021 kPa; molar heat capacity at constant pressure ([2]; 258.1 K): 227.6 ± 3.9 J/K/mol; molar heat capacity at constant pressure ([2]; 263.2 K): 230.3 ± 4 J/K/mol; molar heat capacity at constant pressure ([2]; 268.3 K): 233.4 ± 4.1 J/K/mol; molar heat capacity at constant pressure ([2]; 273.4 K): 236.3 ± 4.1 J/K/mol; molar heat capacity at constant pressure ([2]; 278.5 K): 239.3 ± 4.2 J/K/mol; molar heat capacity at constant pressure ([2]; 283.6 K): 242.3 ± 4.2 J/K/mol; molar heat capacity at constant pressure ([2]; 288.7 K): 245.3 ± 4.2 J/K/mol; molar heat capacity at constant pressure ([2]; 293.8 K): 248.3 ± 4.3 J/K/mol; molar heat capacity at constant pressure ([2]; 298.9 K): 251.3 ± 4.3 J/K/mol; molar heat capacity at constant pressure ([2]; 304 K): 254.3 ± 4.4 J/K/mol; molar heat capacity at constant pressure ([2]; 309.1 K): 257.4 ± 4.5 J/K/mol
C=C(C)[C@H]1CC=C(C)CC1 [(R)-1-methyl-4-(1-methylethenyl)cyclohexene],0.002958 ± 0.00015 kPa and 0.002959 ± 0.00015 kPa and 0.00296 ± 0.00015 kPa,0.00489 ± 0.00021 kPa and 0.004891 ± 0.00021 kPa and 0.004889 ± 0.00021 kPa,0.0079 ± 0.00032 kPa and 0.007901 ± 0.00032 kPa,0.01251 ± 0.0005 kPa and 0.01252 ± 0.0005 kPa,0.01942 ± 0.00061 kPa,0.02957 ± 0.00077 kPa,0.0308 ± 0.00079 kPa and 0.03082 ± 0.00079 kPa,0.04422 ± 0.001 kPa,0.06502 ± 0.0014 kPa and 0.06504 ± 0.0014 kPa and 0.06505 ± 0.0014 kPa,0.09414 ± 0.0019 kPa and 0.09416 ± 0.0019 kPa,0.1343 ± 0.0023 kPa,0.1888 ± 0.003 kPa and 0.1889 ± 0.003 kPa,0.262 ± 0.0039 kPa,0.3589 ± 0.0051 kPa,vapor or sublimation pressure ([1]; 238.2 K): 0.001012 ± 0.00011 kPa and 0.001013 ± 0.00011 kPa; vapor or sublimation pressure ([1]; 243.2 K): 0.001755 ± 0.00012 kPa and 0.001756 ± 0.00012 kPa
C=C(C)[C@@H]1CC=C(C)CC1 [(S)-1-methyl-4-(1-methylethenyl)cyclohexene],,,,,,,0.03073 ± 0.00079 kPa and 0.03074 ± 0.00079 kPa and 0.03075 ± 0.00079 kPa,0.0441 ± 0.001 kPa and 0.04411 ± 0.001 kPa,0.06487 ± 0.0014 kPa and 0.06488 ± 0.0014 kPa and 0.0649 ± 0.0014 kPa,0.09392 ± 0.0019 kPa and 0.09395 ± 0.0019 kPa,0.1339 ± 0.0023 kPa,0.1883 ± 0.003 kPa,0.2609 ± 0.0039 kPa and 0.261 ± 0.0039 kPa,0.3575 ± 0.005 kPa and 0.3576 ± 0.005 kPa,molar heat capacity at constant pressure ([2]; 260.1 K): 240.3 ± 4.2 J/K/mol; molar heat capacity at constant pressure ([2]; 265 K): 242.5 ± 4.2 J/K/mol; molar heat capacity at constant pressure ([2]; 270 K): 244.8 ± 4.2 J/K/mol; molar heat capacity at constant pressure ([2]; 275 K): 247.1 ± 4.2 J/K/mol; molar heat capacity at constant pressure ([2]; 280 K): 249.2 ± 4.3 J/K/mol; molar heat capacity at constant pressure ([2]; 285 K): 251.3 ± 4.3 J/K/mol; molar heat capacity at constant pressure ([2]; 290 K): 253.4 ± 4.4 J/K/mol; molar heat capacity at constant pressure ([2]; 295 K): 255.8 ± 4.4 J/K/mol; molar heat capacity at constant pressure ([2]; 300 K): 257.8 ± 4.5 J/K/mol; molar heat capacity at constant pressure ([2]; 305 K): 260.2 ± 4.5 J/K/mol; molar heat capacity at constant pressure ([2]; 310 K): 262.5 ± 4.6 J/K/mol
